Laboratory results published in patent US8058242B2, “Chimeric proteins with natriuretic activity” (The University of Queensland, priority 2004, dated 2011).
“And” between values parts separate entries of the source, which are not always exact repeats. Identical values can stand only once. Positions of bridges follow the written chain, without caps; N, C: chain ends. Residues, ends and D or L forms follow the SMILES beside them.

Tests used:
[1] = target: T1, Natriuretic Peptide Receptor-A (NPR-A) signaling in MDCK cells (Canis lupus familiaris, UniProt A0A8I3MHU3); format: cell-based, canine; settings: stimulation of cGMP accumulation in MDCK cells
T1 sequence (A0A8I3MHU3 32-1060): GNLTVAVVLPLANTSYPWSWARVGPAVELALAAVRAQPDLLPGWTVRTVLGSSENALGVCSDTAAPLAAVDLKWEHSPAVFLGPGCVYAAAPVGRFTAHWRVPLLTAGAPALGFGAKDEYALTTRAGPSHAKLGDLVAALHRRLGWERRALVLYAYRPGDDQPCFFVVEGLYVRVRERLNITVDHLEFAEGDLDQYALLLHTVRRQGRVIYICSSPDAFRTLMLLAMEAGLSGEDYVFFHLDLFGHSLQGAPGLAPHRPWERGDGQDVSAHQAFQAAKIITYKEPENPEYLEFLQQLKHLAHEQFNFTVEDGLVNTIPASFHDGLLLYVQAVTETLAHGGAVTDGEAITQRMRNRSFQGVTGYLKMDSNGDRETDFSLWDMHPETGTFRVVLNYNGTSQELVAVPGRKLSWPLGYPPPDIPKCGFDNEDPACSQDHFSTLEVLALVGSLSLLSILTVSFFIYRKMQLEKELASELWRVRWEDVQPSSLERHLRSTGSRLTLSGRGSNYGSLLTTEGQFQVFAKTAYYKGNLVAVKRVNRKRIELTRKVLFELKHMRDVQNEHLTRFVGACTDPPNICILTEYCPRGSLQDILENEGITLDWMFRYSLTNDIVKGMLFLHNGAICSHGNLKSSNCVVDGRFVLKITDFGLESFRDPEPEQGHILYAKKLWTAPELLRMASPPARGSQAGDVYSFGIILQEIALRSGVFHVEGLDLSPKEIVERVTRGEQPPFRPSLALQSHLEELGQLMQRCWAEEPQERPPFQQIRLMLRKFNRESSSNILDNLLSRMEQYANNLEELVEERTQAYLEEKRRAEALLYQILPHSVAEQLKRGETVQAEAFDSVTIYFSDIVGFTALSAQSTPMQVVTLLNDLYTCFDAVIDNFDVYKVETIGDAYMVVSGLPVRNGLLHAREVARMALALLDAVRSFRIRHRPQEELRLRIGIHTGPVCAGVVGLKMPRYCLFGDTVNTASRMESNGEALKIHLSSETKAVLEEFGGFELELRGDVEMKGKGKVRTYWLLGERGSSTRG

conscious rabbits = test: Blood pressure and heart rate in conscious rabbits, intravenous infusion dose-response (Example 8); settings: for Diastolic BP, Average Response SED / HR, Average Response SED / Mean BP (MAP), Average Response SED / Systolic BP, Average Response SED: average of the 3 doses 1.0, 2.0, 4.0 μg/kg/min; for Diastolic BP, mean difference from control / HR, mean difference from control / Mean BP, mean difference from control / Systolic BP, mean difference from control: 45 min
[2] = system: endothelium-denuded aortic rings (GC-A mediated); test: Aortic ring relaxation, endothelium-denuded rings pre-contracted with 40 mM KCl (Example 3); set-up: species or system rat; settings: endothelium-denuded rat aortas pre-contracted with 40 mM KCl; peptide 0.1 μM
Protocol: (§1) Male Sprague Dawley rats were killed and the descending thoracic aorta rapidly removed and flushed with physiological solution. After being cleared of adhering fat and connective tissue, 5 mm rings were mounted under 10 g resting tension, between two stainless steel hooks, in organ baths (37° C.) containing carbogenated (95% O2 and 5% CO2) physiological salt solution of the following composition (mM): NaCl, 118.4; NaHCO3, 25; glucose, 11; KCl, 4.7; MgSO4, 1.2; KH2PO4, 1.2 and CaCl2, 2.5. The lower hook was attached to a tissue holder and the upper hook to a force displacement transducer (Grass FTO3). Where indicated endothelial cells were removed by gentle rubbing of the intimal surface with a wire. To confirm the presence or absence of endothelial cells, tissues were precontracted with a sub-maximal concentration of phenylephrine (0.3 μM) and the response to acetylcholine (ACh, 10 μM) observed. Ach-induced relaxation greater than 80% of maximum indicated the presence of endothelium; whereas Ach-induced relaxation less than 10% indicated the absence of endothelium. Ring preparations under resting tension were conditioned by two contraction/relaxation cycles with 40 mM KCl, contracted by a third application of 40 mM KCl and then relaxed with different doses of the venom peptides. Responses were expressed as a percentage relaxation of the precontraction by KCl.

Plasmin = target: T2, Plasmin (Homo sapiens, UniProt P00747); test: Stability to enzymatic degradation by plasmin (Examples 7, 16); format: in vitro ADME; settings: plasmin, 37° C.; for half-life at 125 μM: plasmin in Tris/HCl-NaCl buffer, read-out: HalfLife in plasmin
T2 construct: with 500 ng Endopeptidase (NEP) or 10 μg Plasmin
T2 sequence (P00747 97-580 partner limits assumed, species assumed): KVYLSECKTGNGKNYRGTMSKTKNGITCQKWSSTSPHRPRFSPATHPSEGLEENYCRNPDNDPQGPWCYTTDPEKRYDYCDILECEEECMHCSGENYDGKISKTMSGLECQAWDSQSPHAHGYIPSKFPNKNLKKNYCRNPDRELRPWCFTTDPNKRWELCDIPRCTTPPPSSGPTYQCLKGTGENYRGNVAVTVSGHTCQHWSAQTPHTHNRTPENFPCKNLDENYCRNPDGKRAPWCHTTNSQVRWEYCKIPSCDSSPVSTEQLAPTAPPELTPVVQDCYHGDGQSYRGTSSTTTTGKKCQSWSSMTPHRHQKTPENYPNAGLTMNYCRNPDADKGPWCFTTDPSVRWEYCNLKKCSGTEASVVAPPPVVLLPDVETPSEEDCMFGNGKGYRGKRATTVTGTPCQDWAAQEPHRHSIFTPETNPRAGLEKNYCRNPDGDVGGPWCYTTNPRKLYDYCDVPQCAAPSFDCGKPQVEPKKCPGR
T2 sequence (P00747 581-810 limits assumed, species assumed): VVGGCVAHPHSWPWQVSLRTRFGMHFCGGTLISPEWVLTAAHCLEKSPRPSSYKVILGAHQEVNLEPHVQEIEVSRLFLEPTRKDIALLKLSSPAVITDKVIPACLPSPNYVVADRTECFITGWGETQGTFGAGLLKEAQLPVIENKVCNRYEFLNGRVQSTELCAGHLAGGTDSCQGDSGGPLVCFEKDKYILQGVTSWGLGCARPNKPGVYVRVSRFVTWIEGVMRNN
Protocol: The incubation buffer contained 100 mM Tris/HCl and 150 mM NaCl and the pH was adjusted to 7.2-7.4. In each assay, 100 μl of peptide [500 μM] was incubated with 300 μl buffer (with 500 ng Endopeptidase (NEP) or 10 μg Plasmin) at 37° C. 50 μl aliquots were taken at times 5 min, 30 min, 60 min, 90 min, 180 min and 24 h. The reaction was quenched by heating to 100° C. for 4 min and the remaining peptide concentrations measured by RP-HPLC. Note that the levels of Plasmin required to degrade these peptides was several thousands time the levels present in human plasma.
The stability of TDT and was investigated using the same enzymatic degradation assays (NEP, plasmin, pepsin) disclosed in Example 7. […] It is also evident that the increased NEP stability cannot be explained by the length of the tail region alone as the NEP cleavage site residues at the N-terminal end of the loop region.

[3] = system: endothelium-intact aortic rings (NPR-C mediated); test: Aortic ring relaxation, endothelium-intact rings pre-contracted with 40 mM KCl (Example 3); set-up: species or system rat; settings: endothelium-intact rat aortas pre-contracted with 40 mM KCl; peptide 0.1 μM
Protocol: as §1

[4] = after 1 hour recovery period, Table 10A

SMILES: CC[C@H](C)[C@@H]1NC(=O)[C@H](CCCCN)NC(=O)[C@H](Cc2c[nH]cn2)NC(=O)CNC(=O)[C@H](Cc2ccccc2)NC(=O)[C@@H](NC(=O)[C@@H]2CCCN2C(=O)[C@H](CC(=O)O)NC(=O)[C@H](Cc2ccc(O)cc2)NC(=O)[C@H](CCCCN)NC(=O)[C@@H](NC(=O)[C@@H](N)CCC(=O)O)C(C)C)CSSC[C@@H](C(=O)N2CCC[C@H]2C(=O)N[C@@H](CO)C(=O)N[C@@H](CC(C)C)C(=O)N[C@@H](CCCNC(=N)N)C(=O)N[C@@H](CC(=O)O)C(=O)N2CCC[C@H]2C(=O)N[C@@H](CCCNC(=N)N)C(=O)N2CCC[C@H]2C(=O)N[C@@H](CC(N)=O)C(=O)N[C@@H](C)C(=O)N2CCC[C@H]2C(=O)N[C@@H](CO)C(=O)N[C@H](C(=O)N[C@@H](CO)C(=O)N[C@@H](C)C(=O)O)[C@@H](C)O)NC(=O)CNC(=O)[C@H](CC(C)C)NC(=O)[C@H](CC(N)=O)NC(=O)[C@H](CO)NC(=O)[C@H](C(C)C)NC(=O)[C@H](Cc2c[nH]cn2)NC(=O)[C@H](CC(N)=O)NC(=O)[C@H]([C@@H](C)CC)NC(=O)[C@H](CCCNC(=N)N)NC(=O)[C@H](CC(=O)O)NC1=O [DNP, reference compound] (H-EVKYDPCFGHKIDRINHVSNLGCPSLRDPRPNAPSTSA-OH; disulfide 7-23; N-terminus and C-terminus assumed)
- −Log10 EC50 (pEC50) ± Standard Error [1]: 8.080 ± 1.411
- Recovery (MAP) (conscious rabbits; [4]): 61.4 mm Hg
- Recovery Delta SED (MAP) (conscious rabbits; [4]): 2.5 ± 1.1 mm Hg
- Diastolic BP, Average Response SED (conscious rabbits): −9.0 ± 0.9 mmHg
- HR, Average Response SED (conscious rabbits): 17.3 ± 6.4 bpm
- Mean BP (MAP), Average Response SED (conscious rabbits): −14.2±0.8 mmHg
- Systolic BP, Average Response SED (conscious rabbits): −13.3 ± 0.8 mmHg
- MAP at final dose (conscious rabbits; highest dose, Table 10A): 58.9 mm Hg
- Treatment Effect, change of mean blood pressure during the infusion (conscious rabbits; highest dose, Table 10A, groups 1, 2A and 3): −17.2 mm Hg
- Diastolic BP, mean difference from control (conscious rabbits; i.v. infusion 1.0 μg/kg/min): −8.5 mmHg
- HR, mean difference from control (conscious rabbits; i.v. infusion 1.0 μg/kg/min): 17.5 bpm
- Mean BP, mean difference from control (conscious rabbits; i.v. infusion 1.0 μg/kg/min): −13.0 mmHg
- Systolic BP, mean difference from control (conscious rabbits; i.v. infusion 1.0 μg/kg/min): −11.7 mmHg
- Diastolic BP, mean difference from control (conscious rabbits; i.v. infusion 2.0 μg/kg/min): −6.9 mmHg
- HR, mean difference from control (conscious rabbits; i.v. infusion 2.0 μg/kg/min): 25.9 bpm
- Mean BP, mean difference from control (conscious rabbits; i.v. infusion 2.0 μg/kg/min): −12.6 mmHg
- Systolic BP, mean difference from control (conscious rabbits; i.v. infusion 2.0 μg/kg/min): −11.9 mmHg
- Diastolic BP, mean difference from control (conscious rabbits; i.v. infusion 4.0 μg/kg/min): −11.7 mmHg
- HR, mean difference from control (conscious rabbits; i.v. infusion 4.0 μg/kg/min): 8.5 bpm
- Mean BP, mean difference from control (conscious rabbits; i.v. infusion 4.0 μg/kg/min): −17.2 mmHg
- Systolic BP, mean difference from control (conscious rabbits; i.v. infusion 4.0 μg/kg/min): −16.4 mmHg
- percentage relaxation of the precontraction by KCl [2]: ~100%
- half-life at 125 μM (Plasmin): 29.1 min
- K (one phase exponential decay, best fit values) (Plasmin): 0.02381
- PLATEAU (one phase exponential decay, best fit values) (Plasmin): 0.1675
- SPAN (one phase exponential decay, best fit values) (Plasmin): 0.7306
- percentage relaxation of the precontraction by KCl [3]: ~100%

SMILES: CC[C@H](C)[C@H](NC(=O)[C@H](CCCCN)NC(=O)[C@H](CO)NC(=O)[C@H](CC(=O)O)NC(=O)[C@@H](N)CO)C(=O)NCC(=O)N[C@@H](CC(N)=O)C(=O)NCC(=O)N[C@H]1CSSC[C@@H](C(=O)N[C@@H](CC(N)=O)C(=O)N[C@@H](CCCNC(=N)N)C(=O)N[C@H](C(=O)N[C@@H](CCSC)C(=O)N[C@@H](CCC(N)=O)C(=O)N[C@@H](CC(N)=O)C(=O)N2CCC[C@H]2C(=O)N2CCC[C@H]2C(=O)N[C@@H](CCCCN)C(=O)N[C@@H](CCCCN)C(=O)N[C@@H](Cc2ccccc2)C(=O)N[C@@H](CO)C(=O)NCC(=O)N[C@@H](CCC(=O)O)C(=O)O)[C@@H](C)CC)NC(=O)CNC(=O)[C@H](CC(C)C)NC(=O)CNC(=O)[C@H](CO)NC(=O)[C@H](C(C)C)NC(=O)[C@H](CO)NC(=O)CNC(=O)[C@H]([C@@H](C)CC)NC(=O)[C@H](CCCNC(=N)N)NC(=O)[C@H](CC(=O)O)NC(=O)[C@H](CC(C)C)NC(=O)[C@@H]2CCCN2C(=O)[C@H](Cc2ccccc2)NC(=O)CNC(=O)[C@H](Cc2ccccc2)NC1=O [TNPc] (H-SDSKIGNGCFGFPLDRIGSVSGLGCNRIMQNPPKKFSGE-OH; disulfide 9-25)
- −Log10 EC50 (pEC50) ± Standard Error [1]: 6.928 ± 0.1122
- EC50 ([1]; read-out: EC50 (M) ± Standard Error): 1.84e-07 M
- recovery of MAP, in words (conscious rabbits; 2 hours after infusion): remained suppressed for 2 hours
- MAP at final dose (conscious rabbits; Table 10B): 58.9 mm Hg and 61.3 mm Hg
- Recovery (MAP) (conscious rabbits; [4]): 56.6 mm Hg and 58.8 mm Hg
- Recovery (MAP) (conscious rabbits; after a 2 hour recovery period, Table 10B): 58.8 mm Hg and 66.1 mm Hg
- Diastolic BP, Average Response SED (conscious rabbits): −12.5 ± 0.6 mmHg
- HR, Average Response SED (conscious rabbits): 4.7 ± 3.8 bpm
- Mean BP (MAP), Average Response SED (conscious rabbits): −14.9±0.7 mmHg
- Systolic BP, Average Response SED (conscious rabbits): −13.2 ± 0.8 mmHg
- effective half life compared to BNP (conscious rabbits; bolus injection): 3 fold
- time taken to recover to 50% of the peak response (conscious rabbits; bolus injection of 0.24 mg/kg TNPc or equivalent molar dose of BNP): 225 min
- MAP at final dose (conscious rabbits; highest dose, Table 10A): 56.1 mm Hg and 58.9 mm Hg
- Diastolic BP, mean difference from control (conscious rabbits; i.v. infusion 1.0 μg/kg/min): −10.0 mmHg
- HR, mean difference from control (conscious rabbits; i.v. infusion 1.0 μg/kg/min): −3.5 bpm
- Mean BP, mean difference from control (conscious rabbits; i.v. infusion 1.0 μg/kg/min): −11.0 mmHg
- Systolic BP, mean difference from control (conscious rabbits; i.v. infusion 1.0 μg/kg/min): −9.1 mmHg
- Diastolic BP, mean difference from control (conscious rabbits; i.v. infusion 2.0 μg/kg/min): −14.7 mmHg
- HR, mean difference from control (conscious rabbits; i.v. infusion 2.0 μg/kg/min): 3.7 bpm
- Mean BP, mean difference from control (conscious rabbits; i.v. infusion 2.0 μg/kg/min): −17.7 mmHg
- Systolic BP, mean difference from control (conscious rabbits; i.v. infusion 2.0 μg/kg/min): −15.6 mmHg
- Diastolic BP, mean difference from control (conscious rabbits; i.v. infusion 4.0 μg/kg/min): −12.8 mmHg
- HR, mean difference from control (conscious rabbits; i.v. infusion 4.0 μg/kg/min): 13.8 bpm
- Mean BP, mean difference from control (conscious rabbits; i.v. infusion 4.0 μg/kg/min): −15.9 mmHg
- Systolic BP, mean difference from control (conscious rabbits; i.v. infusion 4.0 μg/kg/min): −14.9 mmHg
- recovery of MAP from the hypotension, in words (conscious rabbits; one hour after the end of infusion): MAP had not changed
- percentage relaxation of the precontraction by KCl [2]: ~100%
- half-life at 125 μM (Plasmin): 23.6 min
- K (one phase exponential decay, best fit values) (Plasmin): 0.02935
- PLATEAU (one phase exponential decay, best fit values) (Plasmin): 0.1128
- SPAN (one phase exponential decay, best fit values) (Plasmin): 0.8454
- percentage relaxation of the precontraction by KCl [3]: ~100%
